As a reminder, the Ki is a measure of affinity in units of concentration, obtained from inhibition or displacement. Low readings indicate tighter binding, high ones weaker binding.

Sequence of beta-lactamase AmpC (Escherichia coli) (P00811 whole entry, looked up): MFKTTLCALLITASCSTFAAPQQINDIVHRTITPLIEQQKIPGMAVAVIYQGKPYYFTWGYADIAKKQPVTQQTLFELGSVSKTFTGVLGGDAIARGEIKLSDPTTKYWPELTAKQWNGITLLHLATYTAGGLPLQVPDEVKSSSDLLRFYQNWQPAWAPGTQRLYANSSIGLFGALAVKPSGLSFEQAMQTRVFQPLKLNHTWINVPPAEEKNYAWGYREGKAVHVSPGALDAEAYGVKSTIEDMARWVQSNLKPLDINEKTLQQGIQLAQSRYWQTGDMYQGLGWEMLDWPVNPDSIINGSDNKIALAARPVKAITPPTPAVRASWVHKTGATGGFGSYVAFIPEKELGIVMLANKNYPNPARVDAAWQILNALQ

This experiment concerns the target beta-lactamase AmpC (Escherichia coli) (UniProt P00811). The experiment is described as follows: Inhibition of Escherichia coli beta-lactamase.
The compound `O=CNCc1ccc2sc(B(O)O)cc2c1` [5-formylaminomethylbenzo[b]thiophen-2-ylboronic acid] gave an inhibition constant Ki of 450 nM.

Take `OB(O)c1cc2cc(Cn3ccnc3)ccc2s1` [5-imidazol-1-yl-methylbenzo[b]thiophen-2-ylboronic acid]: the affinity corresponds to a Ki of 82 nM.

`Cc1ccc2sc(B(O)O)cc2c1` [5-methyl-benzo[b]thiophen-2-ylboronic acid]: the affinity, expressed as Ki, was 30 nM. This Ki is about 2.7-fold lower than that of the compound before.

(Values after BindingDB's records for doi:10.1021/jm070643q (Universit&#224, 2007).)
